Measured values from patent publication US11717578B2, “Undecylenic acid-based nanocarriers for targeted drug delivery” (University of Cincinnati, priority 2017, dated 2023).

Test system: Reactive Oxygen Species (ROS)
Test: DPBF assay of photodynamic and sonodynamic ROS generation
Details: complexed with mPEG-UA nanocarrier vesicles
From the text: Photodynamic Reactive Oxygen Species (ROS) were generated by irradiation of red/green/blue (RGB) LEDs at 8 mW/cm^2 and detected by the 1,3-diphenylisobenzofuran (DPBF) assay. A photoreactive iron complex (Fe3[diCl-Sal-AHA]3OCH3 Na) from the Baldwin Lab (UC Chemistry) was employed as the photosensitizer and complexed with the mPEG-UA nanocarrier vesicles.

| Substance | photodynamic ROS generation (RGB LEDs at 8 mW/cm^2) | sonodynamic ROS generation (sonication at 1.0 MHz, 3 W/cm^2) |
| --- | --- | --- |
| Fe3[diCl-Sal-AHA]3OCH3 Na | photodynamic ROS are generated | – |
| sodium copper chlorophyllin | – | Sonodynamic ROS were generated |
